Test results taken from patent US9242993B2, “Morpholino substituted bicyclic pyrimidine urea or carbamate derivatives as mTOR inhibitors” (CELLZOME LIMITED, priority 2011, dated 2016).

Experiments:
[1] = target: DNA-dependent protein kinase (DNA-PK) (Homo sapiens, UniProt P78527); assay: biochemical
mTOR = mTOR (Homo sapiens, UniProt P42345); assay: biochemical
[2] = test system: S6RP serine-240/244 phosphorylation; assay: In vitro phospho-S6 cellular assay; assay type: cell-based; conditions: Homo sapiens; HEK293T/17 cells, 2 hours; read-out: pS6 inhibition value (IC50), activity level
Source text: Activation of mTOR signaling results in phosphorylation of several downstream targets. In cells, mTOR exists in two different protein complexes. The mTOR Complex-1 (mTORC1) phosphorylates and activates S6 Kinase 1 (S6K1) and S6 Kinase 2 (S6K2) (also known as p70S6K) which then phosphorylate S6 Ribosomal Protein (S6RP) (also known as RPS6)3. S6RP is phosphorylated on serine 235, serine 236, serine 240 and serine 244 by both pS6K1 and pS6K2. The mTOR Complex-2 (mTORC2) phosphorylates AKT on serine 473 which activates the AKT signaling pathway.
The assay measures a test compound's inhibition of S6RP serine-240/244 phosphorylation and inhibition of Akt serine-473 phosphorylation in human embryonic kidney derived HEK293T/17 cells (ATCC CRL-11268).
The HEK293T/17 cell line is maintained in DMEM media (Invitrogen catalogue number 41965-039) supplemented with 10% FCS at 37° C. in a 5% CO2 humidified incubator.
Cells are seeded in 96-well plates at 40,000 cells/well (pS6RP S240/244 assay) or 80,000 cells/well (pAkt S473 assay) in 90 μl growth media (DMEM, 2% FCS). Plates are incubated for 1 hour in a humidified incubator to allow the cells to adhere. Cells are treated with 8 concentrations of test compounds or DMSO alone for controls (final DMSO concentration 0.1%) and incubated at 37° C. for 2 hours. Then 20 μl of 5× concentrated lysis buffer (750 mM NaCl, 100 mM Tris pH7.4, 5 mM ADTA, 5 mM EGTA, 5% Triton X-100) is added, plates are sealed and incubated for 15 minutes at 4° C. with gentle shaking. After cell lysis, 25 μl cell lysate is transferred to a MesoScale plate coated with an antibody to pS6RP Ser240/244 (MesoScale Discovery K150DGD-3) or an antibody to pAkt Ser 473 (MesoScale Discovery K151DGD-3). Plates have been blocked before by incubation with 150 μl MesoScale Discovery Blocking Solution-A for 1 hour at room temperature followed by washing with 150 μl 1× Tris wash buffer per well. After the transfer of the cell lysate to the MSD plate, the pS6RP (or pAkt) protein is captured on the coated antibody by incubation at room temperature for 1 hour with gentle shaking. After the capture step the plate is washed three times with 150 μl of 1× Tris wash buffer per well. Then 25 μl detection antibody conjugated with a Sulfo-Tag is added and incubated for 1 hour at room temperature with gentle shaking. Subsequently the antibody solution is removed and the plate is washed 3 times with 150 μl 1× Tris wash buffer per well and 150 μl Read buffer is added. The plates are analysed on a MSD 2400 Plate Reader (MesoScale Discovery). Data analysis is performed using nonlinear regression for a sigmoidal dose-response with a variable slope.

[3] = test system: IFNγ release in whole blood; assay: In vitro human whole blood assay (IFNγ release); assay type: cell-based; conditions: αCD3/αCD28 and IL-2 stimulation, 18 hours, read-out: WB inhibition value (pIC50) (converted)
Procedure: This assay measures IFNγ release in whole blood after αCD3/αCD28 and IL-2 treatment. The whole blood contains circulating T lymphocytes; αCD3/αCD28 stimulation mimics antigen receptor signalling, resulting in epigenetic changes to the IFNG gene locus, such that when IL-2 is added, IFNγ is produced.
Human whole blood, with Na-heparin as the anticoagulant, is obtained from Clinical Trials Laboratory Services. Blood is diluted 1.4 times with RPMI 1640 (Lonza, BE12-167F) and 175 μl/well is distributed in a low evaporation 96-well plates (Falcon, BD Labware, 353072). Blood is treated with 10 concentrations of test compounds or DMSO alone for controls (final DMSO concentration 0.2%) and incubated at 37° C. for 1 hour. Blood is then stimulated with 1 μg/ml αCD3 (R&D Systems, MAB100), 1 μg/ml αCD28 (BD Pharmingen, 555725) and IL-2 at 10 ng/ml (Peprotech, 200-02). Blood is then left to incubate at 37° C. for 18 hours. After, plates are spun at 250 g for 5 minutes to pellet blood cells and 25 μl of plasma is transferred to a MesoScale plate coated with an antibody to IFNγ (MesoScale Discovery K151AEC-2) containing 25 μl/well MesoScale Discovery Blocking Solution-2. Plates have been blocked by incubating with 25 μl/well MesoScale Discovery Blocking Solution-2 for 30 minutes at room temperature. After the transfer of sera to the MSD plate, the IFNγ protein is captured on the coated antibody by incubation at room temperature for 2 hour with gentle shaking. After the capture step the plate is washed three times with 150 μl/well of 1×PBS-Tween wash buffer and 25 μl/well detection antibody conjugated with a Sulfo-Tag is added and incubated for 2 hours at room temperature with gentle shaking. Subsequently the antibody solution is removed and the plate is washed 3 times with 150 μl/well 1×PBS-Tween wash buffer and 150 μl/well MesoScale Discovery Read buffer is added. The plates are analysed on a MSD 2400 Plate Reader (MesoScale Discovery). Data analysis is performed using nonlinear regression for a sigmoidal dose-response with a variable slope.

Chain of DNA-dependent protein kinase (DNA-PK) (P78527 whole entry): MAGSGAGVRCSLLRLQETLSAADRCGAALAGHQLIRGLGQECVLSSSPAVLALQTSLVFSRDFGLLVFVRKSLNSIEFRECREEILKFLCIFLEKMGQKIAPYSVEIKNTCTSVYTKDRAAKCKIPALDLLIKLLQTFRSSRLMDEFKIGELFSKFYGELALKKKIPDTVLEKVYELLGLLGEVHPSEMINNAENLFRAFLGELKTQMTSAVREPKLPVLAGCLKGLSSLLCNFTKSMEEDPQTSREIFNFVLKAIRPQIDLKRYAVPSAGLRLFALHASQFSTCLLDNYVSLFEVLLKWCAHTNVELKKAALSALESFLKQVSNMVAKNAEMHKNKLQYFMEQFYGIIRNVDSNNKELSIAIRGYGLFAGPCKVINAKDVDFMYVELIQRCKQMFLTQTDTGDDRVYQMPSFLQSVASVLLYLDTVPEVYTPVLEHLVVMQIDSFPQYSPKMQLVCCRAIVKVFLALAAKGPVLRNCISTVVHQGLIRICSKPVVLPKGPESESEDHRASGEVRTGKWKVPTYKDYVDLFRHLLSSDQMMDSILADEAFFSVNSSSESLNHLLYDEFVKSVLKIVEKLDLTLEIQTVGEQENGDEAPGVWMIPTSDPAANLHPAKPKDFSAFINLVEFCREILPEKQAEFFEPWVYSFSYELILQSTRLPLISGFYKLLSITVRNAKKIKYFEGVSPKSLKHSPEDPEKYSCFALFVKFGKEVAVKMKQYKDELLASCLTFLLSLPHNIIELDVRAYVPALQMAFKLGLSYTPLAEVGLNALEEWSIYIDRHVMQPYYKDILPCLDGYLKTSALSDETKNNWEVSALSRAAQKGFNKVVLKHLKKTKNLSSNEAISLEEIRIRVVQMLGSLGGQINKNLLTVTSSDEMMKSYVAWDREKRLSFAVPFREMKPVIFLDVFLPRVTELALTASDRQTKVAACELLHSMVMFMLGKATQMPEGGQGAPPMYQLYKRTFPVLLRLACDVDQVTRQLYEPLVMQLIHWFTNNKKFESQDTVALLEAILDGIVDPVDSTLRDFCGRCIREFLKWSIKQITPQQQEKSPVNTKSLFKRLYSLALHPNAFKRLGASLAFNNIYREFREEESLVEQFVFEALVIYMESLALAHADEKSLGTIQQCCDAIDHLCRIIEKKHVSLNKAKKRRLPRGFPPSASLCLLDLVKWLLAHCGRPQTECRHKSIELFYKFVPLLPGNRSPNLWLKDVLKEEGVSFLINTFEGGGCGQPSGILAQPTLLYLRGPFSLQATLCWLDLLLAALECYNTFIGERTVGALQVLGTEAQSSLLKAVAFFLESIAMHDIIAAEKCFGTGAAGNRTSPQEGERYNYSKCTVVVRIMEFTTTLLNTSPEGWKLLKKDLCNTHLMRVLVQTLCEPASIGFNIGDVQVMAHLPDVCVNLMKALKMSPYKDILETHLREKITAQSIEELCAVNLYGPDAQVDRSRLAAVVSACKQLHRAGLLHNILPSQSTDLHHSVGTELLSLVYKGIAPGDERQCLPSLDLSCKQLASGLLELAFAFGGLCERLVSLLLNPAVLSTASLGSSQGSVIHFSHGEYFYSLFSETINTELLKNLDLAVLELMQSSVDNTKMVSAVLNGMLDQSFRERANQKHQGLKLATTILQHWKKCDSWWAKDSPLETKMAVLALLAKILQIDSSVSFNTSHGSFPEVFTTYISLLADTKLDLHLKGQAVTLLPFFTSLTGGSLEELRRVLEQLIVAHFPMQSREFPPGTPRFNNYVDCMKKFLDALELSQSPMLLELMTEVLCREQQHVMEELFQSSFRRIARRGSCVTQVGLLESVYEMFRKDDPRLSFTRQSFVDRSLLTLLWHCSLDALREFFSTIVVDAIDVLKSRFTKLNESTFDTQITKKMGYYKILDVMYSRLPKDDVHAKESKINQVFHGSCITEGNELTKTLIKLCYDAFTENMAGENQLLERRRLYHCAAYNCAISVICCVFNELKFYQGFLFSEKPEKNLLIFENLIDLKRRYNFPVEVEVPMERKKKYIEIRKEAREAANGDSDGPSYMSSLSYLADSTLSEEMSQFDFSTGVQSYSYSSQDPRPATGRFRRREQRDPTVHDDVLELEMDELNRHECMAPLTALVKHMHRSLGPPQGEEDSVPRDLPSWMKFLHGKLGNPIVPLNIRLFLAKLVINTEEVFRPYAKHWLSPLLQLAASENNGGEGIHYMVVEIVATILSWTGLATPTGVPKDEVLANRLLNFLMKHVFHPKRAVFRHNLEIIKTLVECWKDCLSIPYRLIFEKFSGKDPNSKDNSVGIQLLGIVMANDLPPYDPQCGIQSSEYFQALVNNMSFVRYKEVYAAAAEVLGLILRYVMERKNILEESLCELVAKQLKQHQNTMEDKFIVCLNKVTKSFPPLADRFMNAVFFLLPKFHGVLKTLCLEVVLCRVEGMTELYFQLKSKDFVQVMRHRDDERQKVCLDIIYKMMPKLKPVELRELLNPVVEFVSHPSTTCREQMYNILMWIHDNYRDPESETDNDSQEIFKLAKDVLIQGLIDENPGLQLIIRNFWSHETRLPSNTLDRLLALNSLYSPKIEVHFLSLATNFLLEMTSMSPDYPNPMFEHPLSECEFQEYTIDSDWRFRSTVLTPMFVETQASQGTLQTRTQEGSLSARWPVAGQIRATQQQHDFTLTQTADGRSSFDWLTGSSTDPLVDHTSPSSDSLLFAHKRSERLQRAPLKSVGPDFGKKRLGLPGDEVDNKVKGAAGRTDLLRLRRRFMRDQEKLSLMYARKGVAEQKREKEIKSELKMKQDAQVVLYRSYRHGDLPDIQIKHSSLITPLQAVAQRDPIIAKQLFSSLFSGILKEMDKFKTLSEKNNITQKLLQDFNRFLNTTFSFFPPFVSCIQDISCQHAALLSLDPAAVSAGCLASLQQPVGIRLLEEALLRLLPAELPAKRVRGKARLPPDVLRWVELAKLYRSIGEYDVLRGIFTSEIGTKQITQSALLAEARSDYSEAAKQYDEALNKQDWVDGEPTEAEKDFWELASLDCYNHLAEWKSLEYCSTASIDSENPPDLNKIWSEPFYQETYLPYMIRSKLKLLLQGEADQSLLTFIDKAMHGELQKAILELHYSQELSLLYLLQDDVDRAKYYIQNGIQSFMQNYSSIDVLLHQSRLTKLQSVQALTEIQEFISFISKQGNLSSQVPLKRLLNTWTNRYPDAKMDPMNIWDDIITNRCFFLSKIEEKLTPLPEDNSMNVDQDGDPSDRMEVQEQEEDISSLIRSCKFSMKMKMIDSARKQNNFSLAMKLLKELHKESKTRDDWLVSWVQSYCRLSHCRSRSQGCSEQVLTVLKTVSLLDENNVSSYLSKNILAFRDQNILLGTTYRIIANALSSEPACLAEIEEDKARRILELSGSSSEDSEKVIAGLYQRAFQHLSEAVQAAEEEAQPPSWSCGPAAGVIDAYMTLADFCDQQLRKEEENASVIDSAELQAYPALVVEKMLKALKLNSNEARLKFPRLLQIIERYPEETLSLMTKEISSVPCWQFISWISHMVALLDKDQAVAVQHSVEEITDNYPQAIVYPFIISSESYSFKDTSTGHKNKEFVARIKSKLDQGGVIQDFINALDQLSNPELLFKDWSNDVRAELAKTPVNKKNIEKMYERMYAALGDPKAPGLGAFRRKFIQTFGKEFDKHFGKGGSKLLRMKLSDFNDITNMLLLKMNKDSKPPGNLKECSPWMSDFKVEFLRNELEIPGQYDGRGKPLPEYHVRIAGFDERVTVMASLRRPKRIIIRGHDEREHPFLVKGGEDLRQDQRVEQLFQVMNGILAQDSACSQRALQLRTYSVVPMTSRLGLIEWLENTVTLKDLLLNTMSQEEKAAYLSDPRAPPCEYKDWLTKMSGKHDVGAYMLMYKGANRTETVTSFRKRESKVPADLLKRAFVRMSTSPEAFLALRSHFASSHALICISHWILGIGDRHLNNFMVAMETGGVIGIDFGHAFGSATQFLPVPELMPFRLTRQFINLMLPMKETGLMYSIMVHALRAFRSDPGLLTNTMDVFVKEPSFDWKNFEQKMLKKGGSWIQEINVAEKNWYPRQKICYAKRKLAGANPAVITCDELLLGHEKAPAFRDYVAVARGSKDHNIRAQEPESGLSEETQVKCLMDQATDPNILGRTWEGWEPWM

Row | SMILES | IC50 [1] | IC50 (mTOR) | IC50 [2] | IC50 [3]
1 | CCNC(=O)Nc1ccc(-c2nc3c(c(N4CCOC[C@@H]4CC)n2)CS(=O)(=O)C3C)cc1 (stereo partly drawn) [Example 41, 1-ethyl-3-(4-(4-((S)-3-ethylmorpholino)-7-methyl-6,6-dioxido-5,7-dihydrothieno[3,4-d]pyrimidin-2-yl)phenyl)urea] | > 10000 nM | < 100 nM | < 100 nM | 251 nM
2 | C[C@H]1COCCN1c1nc(-c2ccc(NC(=O)NC3CC3)cc2)nc2c1CS(=O)(=O)C2(C)F (stereo partly drawn) [Example 43, 1-cyclopropyl-3-(4-(7-fluoro-7-methyl-4-((S)-3-methylmorpholino)-6,6-dioxido-5,7-dihydrothieno[3,4-d]pyrimidin-2-yl)phenyl)urea] | > 10000 nM | < 100 nM | < 100 nM | 1000 nM
3 | CC1c2c(nc(-c3ccc(NC(=O)NCC4CC4)cc3)nc2N2CCOC[C@@H]2C)CS1(=O)=O (stereo partly drawn) [Example 46, 1-(cyclopropylmethyl)-3-(4-(5-methyl-4-((S)-3-methylmorpholino)-6,6-dioxido-5,7-dihydrothieno[3,4-d]pyrimidin-2-yl)phenyl)urea] | – | < 100 nM | < 100 nM | 2000 nM
4 | CC1c2c(nc(-c3ccc(NC(=O)NC4CC4)cc3)nc2N2CCOC[C@H]2C)CS1(=O)=O (stereo partly drawn) [Example 48, 1-cyclopropyl-3-(4-(5-methyl-4-((R)-3-methylmorpholino)-6,6-dioxido-5,7-dihydrothieno[3,4-d]pyrimidin-2-yl)phenyl)urea] | – | < 100 nM | < 100 nM | 79.4 nM
5 | CCC1c2c(nc(-c3ccc(NC(=O)NC4CC4)cc3)nc2N2CCOC[C@@H]2C)CS1(=O)=O (stereo partly drawn) [Example 49, 1-cyclopropyl-3-(4-(5-ethyl-4-((S)-3-methylmorpholino)-6,6-dioxido-5,7-dihydrothieno[3,4-d]pyrimidin-2-yl)phenyl)urea] | – | < 100 nM | < 100 nM | 200 nM
6 | CCNC(=O)Nc1ccc(-c2nc3c(c(N4CCOC[C@@H]4C)n2)C(C)S(=O)(=O)C3)cc1F (stereo partly drawn) [Example 50, 1-ethyl-3-(2-fluoro-4-(5-methyl-4-((S)-3-methylmorpholino)-6,6-dioxido-5,7-dihydrothieno[3,4-d]pyrimidin-2-yl)phenyl)urea] | – | < 100 nM | < 100 nM | 1000 nM
7 | C[C@@H]1COCCN1c1nc(-c2ccc(NC(=O)NC3CC3)cc2)nc2c1CS(=O)(=O)C2(C)C [Example 54, (R)-1-cyclopropyl-3-(4-(7,7-dimethyl-4-(3-methylmorpholino)-6,6-dioxido-5,7-dihydrothieno[3,4-d]pyrimidin-2-yl)phenyl)urea] | – | < 100 nM | < 100 nM | 200 nM
8 | CCNC(=O)Nc1ccc(-c2nc(N3CCOC[C@H]3C)c3c(n2)C(C)(C)S(=O)(=O)C3)cc1 [Example 55, (R)-1-(4-(7,7-dimethyl-4-(3-methylmorpholino)-6,6-dioxido-5,7-dihydrothieno[3,4-d]pyrimidin-2-yl)phenyl)-3-ethylurea] | > 10000 nM | – | < 100 nM | 100 nM
9 | CCNC(=O)Nc1ccc(-c2nc(N3CCOC[C@@H]3CC)c3c(n2)C(C)(C)S(=O)(=O)C3)cc1 [Example 56, (S)-1-ethyl-3-(4-(4-(3-ethylmorpholino)-7,7-dimethyl-6,6-dioxido-5,7-dihydrothieno[3,4-d]pyrimidin-2-yl)phenyl)urea] | > 10000 nM | < 100 nM | – | 316 nM
10 | CNC(=O)Nc1ccc(-c2nc(N3CCOC[C@@H]3C)c3c(n2)C(C)(C)S(=O)(=O)C3)cc1 [Example 57, (S)-1-(4-(7,7-dimethyl-4-(3-methylmorpholino)-6,6-dioxido-5,7-dihydrothieno[3,4-d]pyrimidin-2-yl)phenyl)-3-methylurea] | > 10000 nM | < 100 nM | – | 251 nM
11 | C[C@@H]1COCCN1c1nc(-c2ccc(NC(=O)NC3CC3)cc2)nc2c1[C@H](C)S(=O)(=O)C2 [Example 63, 1-cyclopropyl-3-(4-((S)-5-methyl-4-((R)-3-methylmorpholino)-6,6-dioxido-5,7-dihydrothieno[3,4-d]pyrimidin-2-yl)phenyl)urea] | – | 100 to 1000 nM | < 100 nM | 251 nM
12 | CC1c2c(N3CCOC[C@@H]3C)nc(-c3ccc(NC(=O)NCCF)cc3)nc2C(C)(C)S1(=O)=O (stereo partly drawn) [Example 75, 1-(2-fluoroethyl)-3-(4-(5,7,7-trimethyl-4-((S)-3-methylmorpholino)-6,6-dioxido-5,7-dihydrothieno[3,4-d]pyrimidin-2-yl)phenyl)urea] | – | < 100 nM | < 100 nM | 126 nM
13 | CCNC(=O)Nc1ccc(-c2nc(N3CCOCC3)c3c(n2)C(C)(C)S(=O)(=O)C3)cc1 [Example 76, 1-(4-(7,7-dimethyl-4-morpholino-6,6-dioxido-5,7-dihydrothieno[3,4-d]pyrimidin-2-yl)phenyl)-3-ethylurea] | – | < 100 nM | < 100 nM | 631 nM
14 | CNC(=O)Nc1ccc(-c2nc(N3CCOC[C@@H]3C)c3c(n2)C(C)(C)S(=O)(=O)C3C)cc1 (stereo partly drawn) [Example 77, 1-methyl-3-(4-(5,7,7-trimethyl-4-((S)-3-methylmorpholino)-6,6-dioxido-5,7-dihydrothieno[3,4-d]pyrimidin-2-yl)phenyl)urea] | – | < 100 nM | < 100 nM | 200 nM
15 | CNC(=O)Nc1ccc(-c2nc(N3CCOC[C@@H]3C)c3c(n2)C(C)(C)S(=O)(=O)C3C)c(F)c1 (stereo partly drawn) [Example 78, 1-(3-fluoro-4-(5,7,7-trimethyl-4-((S)-3-methylmorpholino)-6,6-dioxido-5,7-dihydrothieno[3,4-d]pyrimidin-2-yl)phenyl)-3-methylurea] | – | < 100 nM | < 100 nM | 501 nM
16 | CC[C@H]1COCCN1c1nc(-c2ccc(NC(=O)NC)cc2F)nc2c1C(C)S(=O)(=O)C2(C)C (stereo partly drawn) [Example 79, 1-(4-(4-((S)-3-ethylmorpholino)-5,7,7-trimethyl-6,6-dioxido-5,7-dihydrothieno[3,4-d]pyrimidin-2-yl)-3-fluorophenyl)-3-methylurea] | – | < 100 nM | < 100 nM | 631 nM
17 | CC[C@H]1COCCN1c1nc(-c2ccc(NC(=O)NC)cc2)nc2c1C(C)S(=O)(=O)C2(C)C (stereo partly drawn) [Example 80, 1-(4-(4-((S)-3-ethylmorpholino)-5,7,7-trimethyl-6,6-dioxido-5,7-dihydrothieno[3,4-d]pyrimidin-2-yl)phenyl)-3-methylurea] | – | < 100 nM | < 100 nM | 100 nM
